Laboratory results taken from ChEMBL document CHEMBL1201862, “PubChem BioAssay data set” (2004).
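Values below derive from 48-hour exposures of cells grown in 96-well plates, with endpoints linearly interpolated between the two concentrations bracketing the appropriate inhibition level. At the GI50, growth is halved.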 The source made the active and inactive calls. Cut-off read from the data, not from the text of the source: active = GI50 up to about 1.1 µM and inactive = higher. Residues, ends and D or L forms follow the SMILES beside them.

Key:
Experiment in all cases: NCI anticancer screen, dose series, 48 h
[1] = test system: BT-549
[2] = test system: DMS-273
[3] = test system: LXFL 529
[4] = test system: DMS-114
[5] = test system: RXF 631
[6] = test system: HOP-18
[7] = test system: M19-MEL
[8] = test system: DLD-1
[9] = test system: XF498

SMILES | GI50 [1] | GI50 [2] | GI50 [3] | GI50 [4] | GI50 [6] | GI50 [7] | also measured
COc1cccc(C2c3cc4c(cc3OC3COC(=O)C32)OCO4)c1OC (stereo not drawn) | > 100 µM (inactive) |  |  |  |  |  | 
CSc1ncnc2c1cnn2Cc1cn(COCCO)nn1 | > 100 µM (inactive) |  |  |  |  |  | 
CCn1c(-c2ccc(OC)cc2)nc2c1C(=O)c1ccccc1C2=O | 67.6 µM (inactive) |  |  |  |  |  | 
S=C(c1c[nH]c2ccccc12)N1CCN(c2ccccc2)CC1 | > 100 µM (inactive) |  |  |  |  |  | 
CC1(CNCc2ccccc2)CC(CCc2ccccc2)N(C(=O)c2ccc([N+](=O)[O-])cc2)C1Cc1ccc(O)cc1 (stereo not drawn) | 16.1 µM (inactive) |  |  |  |  |  | 
CCOC(=O)c1c2ccc(/C=C/c3ccccc3)ccc-2c(C(=O)OCC)c1N |  | > 100 µM (inactive) | 78.7 µM (inactive) | > 100 µM (inactive) | > 100 µM (inactive) | > 100 µM (inactive) | GI50 [5]: > 100 µM (inactive); GI50 [8]: > 100 µM (inactive)
Nc1ncnc2c1ncn2[C@@H]1C[C@H](NO)[C@@H](O)[C@H]1O | > 100 µM (inactive) |  |  |  |  |  | 
Oc1ccccc1/C=N/c1nc2cc3sc(/N=C/c4ccccc4O)nc3cc2s1 | > 61.8 µM (inactive) |  |  |  |  |  | 
COC(=O)CCC1=NCC(C)(C)O1 | > 10 µM (inactive) |  |  |  |  |  | 
COc1nc(NC2OC(COC(C)=O)C(OC(C)=O)C(OC(C)=O)C2OC(C)=O)c(/N=C/C=N/c2c(NC3OC(COC(C)=O)C(OC(C)=O)C(OC(C)=O)C3OC(C)=O)nc(OC)[nH]c2=O)c(=O)[nH]1 (stereo not drawn) |  |  | > 100 µM (inactive) | > 100 µM (inactive) | > 100 µM (inactive) | > 100 µM (inactive) | GI50 [8]: > 100 µM (inactive)
N#Cc1ccc(Sc2nc3ccccc3[nH]2)cc1 |  | > 100 µM (inactive) | 46.7 µM (inactive) | 65 µM (inactive) | > 100 µM (inactive) | 86.1 µM (inactive) | GI50 [8]: > 100 µM (inactive)
CC1(C)CCCCCC(C)(CCCCCCCCCCCO)C1=O (stereo not drawn) | 18.9 µM (inactive) |  |  |  |  |  | 
C[N+](C)(C)CC1CCC/C1=N/O (stereo not drawn) |  | 60.7 µM (inactive) | 54.5 µM (inactive) | 20 µM (inactive) | > 100 µM (inactive) | 41 µM (inactive) | GI50 [9]: 1.68 µM (inactive); GI50 [8]: > 100 µM (inactive)
COC(=O)[C@@H]1CCCCC[C@H]2C(CO)=C(C)C(=O)C12 (stereo partly drawn) |  | > 100 µM (inactive) | > 100 µM (inactive) | > 100 µM (inactive) | > 100 µM (inactive) | > 100 µM (inactive) | GI50 [9]: > 100 µM (inactive); GI50 [8]: > 100 µM (inactive)
COc1cc(NCc2ccc3n2-c2ccccc2OC3)cc(OC)c1OC | 24.2 µM (inactive) |  |  |  |  |  | 
Cc1cc(C)nc(NS(=O)(=O)c2ccc(NC(=O)c3ccc(Cl)c4c(Nc5ccc(S(=O)(=O)Nc6cc(C)on6)cc5)c5ccccc5nc34)cc2)n1 |  | 17.4 µM (inactive) | 16.8 µM (inactive) | 17.9 µM (inactive) | 15.7 µM (inactive) | 21 µM (inactive) | GI50 [5]: 17.7 µM (inactive); GI50 [8]: 16 µM (inactive)

SMILES | GI50 [1] | GI50 [2] | GI50 [3] | GI50 [4] | GI50 [6] | GI50 [7] | also measured
CC(=O)NNc1nc(C)c(C(=O)NNC(=O)C(=O)Nc2c(Cl)cc([N+](=O)[O-])cc2Cl)s1 |  | 32.6 µM (inactive) | 33.7 µM (inactive) | 32.6 µM (inactive) |  | 46.6 µM (inactive) | 
CSc1nc(C#N)c(/N=C\N(C)C)n1C | > 100 µM (inactive) |  |  |  |  |  | 
CCN(CC)CCN1CCN=c2c3cc(OC)ccc3n3cnc4ccc1c2c43 | 1.27 µM (inactive) |  |  |  |  |  | 
O=C1C[C@@H]2[C@@H](C=CC23CC3)N1O |  | > 100 µM (inactive) | > 100 µM (inactive) |  | > 100 µM (inactive) | > 100 µM (inactive) | GI50 [8]: > 100 µM (inactive)
CC1(C)CC2C=C(C=O)C3(C=O)CC3(C)C2C1 (stereo not drawn) | 1.81 µM (inactive) |  |  |  |  |  | 
CCOP(=O)(/C=C\n1ccc(N)nc1=O)OCC | > 100 µM (inactive) |  |  |  |  |  | 
O=C1C2=Cc3ccccc3OC2(O)Oc2cc(O)ccc21 (stereo not drawn) | > 100 µM (inactive) |  |  |  |  |  | 
C=C(Cl)C(Cl)(CBr)CCCC(C)(C)Cl (stereo not drawn) | 52 µM (inactive) |  |  |  |  |  | 
CCOC(=O)c1sc(N/N=C2\NC(=O)/C(=C/c3ccc([N+](=O)[O-])cc3)S2)nc1C | 24 µM (inactive) |  |  |  |  |  | 
C=C1C(OC(=O)/C=C/c2ccccc2)CC(OC(C)=O)C2(C)C1CC1CC(OC(C)=O)C(C)=C(C(OC(C)=O)C2OC(C)=O)C1(C)C (stereo not drawn) |  | 4.2 µM (inactive) | 8.36 µM (inactive) | 5.97 µM (inactive) | > 100 µM (inactive) | > 100 µM (inactive) | GI50 [5]: > 100 µM (inactive)
CC(=O)OCC1=C(C)C(OC(=O)C(OC(C)=O)[C@@H](NC(=O)c2ccccc2)c2ccccc2)CCC1(C)C (stereo partly drawn) | > 100 µM (inactive) |  |  |  |  |  | 
O=C(/C=C/c1ccc(O)c(O)c1)NC(COC(=O)/C=C/c1ccc(O)c(O)c1)C(=O)O (stereo not drawn) | > 100 µM (inactive) |  |  |  |  |  | 
NCCCNCCCCN(CCCN)/[N+]([O-])=N\O |  | > 100 µM (inactive) | > 100 µM (inactive) | > 100 µM (inactive) | > 100 µM (inactive) | > 100 µM (inactive) | GI50 [5]: > 100 µM (inactive); GI50 [8]: > 100 µM (inactive)
CC(=O)NC(CO)C(=O)NC(Cc1ccc(O)cc1)C(=O)NCC(N)=O (stereo not drawn) (Ac-Ser-Tyr-Gly-NH2; configuration not given here) | > 100 µM (inactive) |  |  |  |  |  | 
C/C(=C\COc1ccc2ccc(=O)oc2c1)C1=CC(=O)C(C)(C)O1 [GEIPARVARIN] | 3.69 µM (inactive) | 4.42 µM (inactive) |  | 4.19 µM (inactive) | 66.7 µM (inactive) | 4.61 µM (inactive) | GI50 [9]: 4.1 µM (inactive); GI50 [8]: 2.26 µM (inactive)
